ChEMBL document CHEMBL4340555, “Synthesis and biological evaluation of 2-chloro-3-[(thiazol-2-yl)amino]-1,4-naphthoquinones” (Bioorg Med Chem Lett, 2019)
Converted amounts (≈) assume the structure as drawn. The source made the active and inactive calls. The calls are words filed in the database; no cut-off is given here.

Columns and labels:
SH-SY5Y = test: Cytotoxicity against human SH-SY5Y assessed as reduction in cell viability after 48 hrs by xCELLigence RTCA SP analysis; assay type: functional, cell-based
HeLa = test: Cytotoxicity against human HeLa cells assessed as cell viability at 20 uM after 24 hrs by resazurin based fluorescence assay relative to control; assay type: functional; details: read-out: Activity
[1] = test system: Mycobacterium tuberculosis; test: Antitubercular activity against Mycobacterium tuberculosis H37Rv assessed as reduction in bacterial growth after 14 days by green fluorescent protein microplate assay; assay type: functional; details: 336 h
[2] = test system: Mycobacterium tuberculosis; test: Antitubercular activity against Mycobacterium tuberculosis H37Rv assessed as reduction in bacterial growth after 7 days by green fluorescent protein microplate assay; assay type: functional; details: 168 h
Plasmodium falciparum [3] = test: Antimalarial activity against Plasmodium falciparum 3D7 assessed as reduction in parasite viability at 20 uM by parasite lactate dehydrogenase released based colorimetric assay relative to control; assay type: functional
[4] = Lipophilicity, log P of the compound; assay type: physicochemical; details: octanol/water
Pseudomonas aeruginosa [5] = test: Antimicrobial activity against Pseudomonas aeruginosa assessed as zone of inhibition at 2000 uM/disk after 24 hrs by disk diffusion method; assay type: functional; details: for zone of inhibition at 2000 µM: read-out: DIZ
Pseudomonas aeruginosa [6] = test: Antimicrobial activity against Pseudomonas aeruginosa assessed as zone of inhibition at 1000 uM/disk after 24 hrs by disk diffusion method; assay type: functional; details: for zone of inhibition at 1000 µM: read-out: DIZ
Pseudomonas aeruginosa [7] = test: Antimicrobial activity against Pseudomonas aeruginosa assessed as zone of inhibition at 100 uM/disk after 24 hrs by disk diffusion method; assay type: functional; details: for zone of inhibition at 100 µM: read-out: DIZ
Pseudomonas aeruginosa [8] = test: Antimicrobial activity against Pseudomonas aeruginosa assessed as zone of inhibition at 10 uM/disk after 24 hrs by disk diffusion method; assay type: functional; details: for zone of inhibition at 10 µM: read-out: DIZ
Pseudomonas aeruginosa [9] = test: Antimicrobial activity against Pseudomonas aeruginosa assessed as zone of inhibition at 1 uM/disk after 24 hrs by disk diffusion method; assay type: functional
Pseudomonas aeruginosa [10] = test: Antimicrobial activity against Pseudomonas aeruginosa assessed as zone of inhibition at 10 ug/disk after 24 hrs by disk diffusion method; assay type: functional; details: read-out: DIZ
Pseudomonas aeruginosa [11] = test: Antimicrobial activity against Pseudomonas aeruginosa assessed as zone of inhibition after 24 hrs by disk diffusion method; assay type: functional, organism-based
Plasmodium falciparum [12] = test: Antimalarial activity against Plasmodium falciparum 3D7 assessed as reduction in parasite viability by parasite lactate dehydrogenase release based colorimetric assay; assay type: functional, organism-based
Pseudomonas aeruginosa [13] = test: Antimicrobial activity against Pseudomonas aeruginosa assessed as zone of inhibition at 25 ug/disk after 24 hrs by disk diffusion method; assay type: functional; details: read-out: DIZ
Plasmodium falciparum [14] = test: Stimulation of parasite proliferation of Plasmodium falciparum 3D7 assessed as increase in parasite viability at 20 uM by parasite lactate dehydrogenase released based colorimetric assay relative to control; assay type: organism-based

SMILES | Activity (SH-SY5Y) | IC50 (SH-SY5Y) | viability at 20 µM (HeLa) | MIC99 [1] | MIC90 [2] | inhibition at 20 µM (Plasmodium falciparum [3]) | logP [4] | diameter of the inhibition zone (DIZ) (Pseudomonas aeruginosa [5]) | diameter of the inhibition zone (DIZ) (Pseudomonas aeruginosa [6]) | diameter of the inhibition zone (DIZ) (Pseudomonas aeruginosa [7]) | diameter of the inhibition zone (DIZ) (Pseudomonas aeruginosa [8]) | diameter of the inhibition zone (DIZ) (Pseudomonas aeruginosa [9]) | zone of inhibition at 2000 µM (Pseudomonas aeruginosa [5]) | zone of inhibition at 1000 µM (Pseudomonas aeruginosa [6]) | zone of inhibition at 100 µM (Pseudomonas aeruginosa [7]) | Activity (Pseudomonas aeruginosa [11]) | other results
CCOC(=O)c1csc(NC2=C(Cl)C(=O)c3ccccc3C2=O)n1 | Dose-dependent effect | 31.1 µM | 82% | > 20 µM | 19.5 µM (≈ 7.07 µg/mL) | 40% | < 5 | inactive | inactive | inactive | inactive | inactive |  |  |  |  | 
CN[C@@H]1[C@H](O[C@H]2[C@H](O[C@H]3[C@H](O)[C@@H](O)[C@H](N=C(N)N)[C@@H](O)[C@@H]3N=C(N)N)O[C@@H](C)[C@]2(O)C=O)O[C@@H](CO)[C@H](O)[C@H]1O [STREPTOMYCIN] |  |  |  |  |  |  |  |  |  |  |  |  |  |  |  |  | zone of inhibition at 10 µg/disc (Pseudomonas aeruginosa [10]): 20 mm
CO[C@H]1/C=C/O[C@@]2(C)Oc3c(C)c(O)c4c(O)c(c(/C=N/N5CCN(C)CC5)c(O)c4c3C2=O)NC(=O)/C(C)=C\C=C\[C@H](C)[C@H](O)[C@@H](C)[C@@H](O)[C@@H](C)[C@H](OC(C)=O)[C@@H]1C [RIFAMPIN] |  |  |  | 0.00167 µM (≈ 0.00137 µg/mL) | 0.0015 µM (≈ 0.00123 µg/mL) |  |  |  |  |  |  |  |  |  |  |  | 
O=C1C(Cl)=C(Nc2nc(-c3ccc(Cl)cc3)cs2)C(=O)c2ccccc21 | Dose-dependent effect | 2.7 µM | 80% | > 20 µM | > 20 µM | 30% | < 5 |  |  |  | inactive | inactive | 12 mm | 9.7 mm | 7.6 mm | Dose-dependent effect | 
O=C1C(Cl)=C(Nc2nc(-c3ccc(Br)cc3)cs2)C(=O)c2ccccc21 | Dose-dependent effect |  | 55% | > 20 µM | > 20 µM | 80 to 90% | < 5 | inactive | inactive | inactive | inactive | inactive |  |  |  |  | IC50 (Plasmodium falciparum [12]): 50.6 µM
O=C1C(Cl)=C(Nc2nc(-c3ccccc3)cs2)C(=O)c2ccccc21 | Dose-dependent effect | 1.8 µM | 80% | 10.2 µM (≈ 3.74 µg/mL) | 9.19 µM (≈ 3.37 µg/mL) | 10% | < 5 |  |  |  |  | inactive | 13.2 mm | 11.4 mm | 9.1 mm | Dose-dependent effect | zone of inhibition at 10 µM (Pseudomonas aeruginosa [8]): 5.3 mm
CCN(CC)CCCC(C)Nc1ccnc2cc(Cl)ccc12 (centres undefined) [CHLOROQUINE] |  |  | 3.6% |  |  |  |  | inactive | inactive | inactive | inactive | inactive |  |  |  |  | 
CC1(C)S[C@@H]2[C@H](NC(=O)[C@H](N)c3ccccc3)C(=O)N2[C@H]1C(=O)O [AMPICILLIN] |  |  |  |  |  |  |  |  |  |  |  |  |  |  |  |  | zone of inhibition at 25 µg/disc (Pseudomonas aeruginosa [13]): 24.7 mm
O=C1C(Cl)=C(Nc2nc(-c3ccc(F)cc3)cs2)C(=O)c2ccccc21 | Dose-dependent effect | 1.5 µM | 75% | 10.4 µM (≈ 4 µg/mL) | 9.37 µM (≈ 3.61 µg/mL) | 80 to 90% | < 5 |  |  |  |  |  | 19.5 mm | 15 mm | 11 mm | Dose-dependent effect | IC50 (Plasmodium falciparum [12]): 44.7 µM; zone of inhibition at 10 µM (Pseudomonas aeruginosa [8]): 8 mm; zone of inhibition at 1 µM (Pseudomonas aeruginosa [9]; read-out: DIZ): 5 mm
O=C1C(Cl)=C(Nc2nc(-c3ccc([N+](=O)[O-])cc3)cs2)C(=O)c2ccccc21 | Dose-dependent effect |  | 80% | > 20 µM | > 20 µM | 80 to 90% | < 5 |  |  |  | inactive | inactive | 14.1 mm | 11 mm | 7.2 mm | Dose-dependent effect | IC50 (Plasmodium falciparum [12]): 20.3 µM
O=C(O)c1csc(NC2=C(Cl)C(=O)c3ccccc3C2=O)n1 | Dose-dependent effect | > 100 µM | 75% | > 20 µM | > 20 µM |  | < 5 | inactive | inactive | inactive | inactive | inactive |  |  |  |  | Activity (Plasmodium falciparum [14]): 15%
